“Also recorded” adds a separate entry of the source.
Experiments:
[1] = test system: PC12 cells (rat pheochromocytoma neurons); test: MTT cytotoxicity assay, Aβ-induced neurotoxicity in PC12 cells (Example II); type: cell-based; details: for neuroprotective effect compared with SP222 / neuroprotection against 0.1 μM Aβ-induced neurotoxicity / neuroprotection against 10 μM Aβ-induced neurotoxicity / neuroprotection against 1 μM Aβ-induced neurotoxicity: MTT; for neuroprotective effect compared with SP222: 0.1 μM Aβ; for neuroprotection against 0.1 μM Aβ-induced neurotoxicity / neuroprotection against 10 μM Aβ-induced neurotoxicity / neuroprotection against 1 μM Aβ-induced neurotoxicity: compounds at 30 and 50 μM, 72 hours; for neuroprotection against Aβ-induced neurotoxicity (structure/activity discussion): PC12 cells
Procedure: (§1) PC12 cells (rat pheochromocytoma neurons) from ATCC (Manassas, Va.) were cultured at 37° C. and 5% CO2 in RPMI 1640 medium devoid of glutamine and supplemented with 10% fetal bovine serum and 5% horse serum. Yao Z, Drieu K and Papadopoulos V., The Gingko biloba extract EGb 761 rescues PC12 neuronal cells from β-amyloid-induced cell death by inhibiting the formation of (3-amyloid-derived diffusible neurotoxic ligands, Brain Res, 889, 181-190 (2001). Cells were seeded in 96-well plates (8×10^4 cells/well). After an overnight period of incubation, increasing concentrations of aggregated Aβ (0.1, 1 and 10 μM) were added to the cells in the presence or absence of the indicated concentrations of the SP compounds to be tested. After 72-hours incubation time various parameters, markers of cell viability, were determined. Mouse MA-10 tumor Leydig cells were maintained at 37° C. in DMEM/Ham's F12 (Biofluids, Rockville, Md.) medium supplemented with 5% heat-inactivated fetal calf serum and 2.5% horse serum in 5% CO2. Cells were plated on 96-well plates at the density of 2.5×10^4 cells/well for overnight. The cells were stimulated with the indicated concentrations of the various SP compounds in 0.2 ml/well serum-free medium for 2 hours. The culture medium was collected and tested for progesterone production by radioimmunoassay.
The cellular toxicity of Aβ was assessed using the 3-(4,5-dimethylthiazol-2-yl)-2,5-diphenyl tetrazolium bromide (MTT) assay (Trevigen, Gaithersburg, Md.). Briefly, 10 μl of the MTT solution were added to the cells cultured in 100 μl medium. After an incubation period of 4 hours, 100 μl of detergent were added and cells were incubated overnight at 37° C. Formazan blue formation was quantified at 600 nm and 690 nm using the Victor quantitative detection spectrophotometer (EGG-Wallac, Gaithersburg, Md.) and the results expressed as (DO600-DO690). […] Liu Y and Schubert D, Steroid hormones block amyloid fibril-induced 3-(4,5-dimethylthiazol-2-yl)-2,5-diphenyltetrazolium bromide (MTT) formazan exocytosis: relationship to neurotoxicity, J. Neurochem., 19, 1639-1662 (1998). For that reason, additional cytotoxicity and cell viability assays were used.
Yao et al., J. Neurochem., 83, 1110-1119 (2002); and Yao et al., The Gingko biloba extract EGb 761 rescues PC12 neuronal cells from β-amyloid-induced cell death by inhibiting the formation of β-amyloid-derived diffusible neurotoxic ligands, Brain Res., 889, 181-190 (2001). To stay close to the concentrations of Aβ present in AD brain, 0.1-10 μM concentrations of Aβ were used. The compounds tested for their neuroprotective properties were examined at 30 and 50 μM concentrations (FIGS. 9-15).

PC12 cells [2] = test: Cellular ATP levels (ATPLite-M) in Aβ-treated PC12 cells; type: cell-based, rat; details: 0.1 and 1.0 μM Aβ
Procedure: as §1
Cellular ATP concentrations were measured using the ATPLite-M™ luminescence assay (Packard BioSciences Co.). For this assay, cells were cultured on black 96-well ViewPlate™ and the ATP concentrations were measured on a TopCount NXT™ counter (Packard BioSciences Co.) following the recommendations of the manufacturer.

Aβ = target: T1, Aβ (Homo sapiens, UniProt P05067); test: CPBBA displacement of radiolabeled 22R-hydroxycholesterol from Aβ (Example II); type: binding; details: 100 μM unlabeled compound; 50 μM Aβ
T1 construct: Aβ1-42 peptide was purchased from American Peptide Co; purchased American Peptide Co. (Sunnyvale, Calif.)
T1 sequence (P05067 672-713): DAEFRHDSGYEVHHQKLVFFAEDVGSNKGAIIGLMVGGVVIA
Procedure: At the end of the incubation time, samples were separated by 1.5% agarose (Type I-B) gel electrophoresis under native conditions and transferred to nitrocellulose membrane (Schleicher&Schuell, Keene, N.H.) in 10×SSC buffer. The membrane was exposed to tritium-sensitive screen and analyzed by phosphoimaging using the Cyclone Storage phosphor system (Packard BioScience). Image-densitometric analysis was performed using the OptiQuant software (Packard BioScience). […] Low molecular weight unincorporated 22R-hydroxycholesterol and derivatives are separated and eliminated during electrophoresis.

rat PC12 neuronal cells = test: MTT assay, Aβ1-42-induced cytotoxicity in PC12 cells (Example I); details: MTT
NT2 cells [3] = test: NT2 cell differentiation, phase-contrast morphology; type: cell-based, human; details: 25 μM; 3, 6 and 12 days (comparators 6 days)
PC12 cells [4] = test: Membrane potential (CytoLite luminescence) in Aβ-treated PC12 cells; type: cell-based, rat; details: 10 μM Aβ
Procedure: as §1
Cells viability was also assessed using the luminescence-based kit CytoLite™ (Packard BioScience Co.) according to the recommendations of the manufacturer. Briefly, cells were cultured and treated in 96-well plates and after 72-hours incubation time, 25 μl of Activator solution was added to the cells followed by 150 μl of Amplifier solution. Luminescence was measured on a TopCount NXT™ counter (Packard BioSciences Co.) following a 5 minute precount delay.

human NT2 cells = test: Trypan blue dye exclusion assay, NT2 cells; type: cell-based; details: 25 μM steroid, 72 hours
Procedure: (§2) Rat PC12 cells were cultured as previously described. Yao et al., Brain Res. 889, 181-190 (2001). Human NT2 precursor (Ntera2/D1 teratocarcinoma) cells were obtained from Stratagene (La Jolla, Calif.) and cultured following the instructions of the supplier. Differentiated human NT2 neurons (NT2N) were obtained after treatment of the NT2 precursor cells with retinoic acid. Andrews, Dev. […] Aβ was dissolved in media and used either in the aggregated (left overnight at 4° C.) or soluble (containing oligomers such as dimers and tetramers) forms examined by electrophoresis as previously described. Yao et al., Brain Res. (2001). […] Id. Cell viability was measured using the trypan blue exclusion method as previously described. Id. In brief, for these studies, cells were treated for 72 hours with steroids in the presence or absence of increasing concentrations of Aβ. At the end of the incubation, the cells were washed three times with PBS and incubated for 15 minutes with 0.1% trypan blue stain solution at room temperature. After washing three times with PBS, 0.1 N NaOH was added to the cells and trypan blue staining was quantified using the Victor quantitative detection spectrophotometer (EGG-Wallac, Gaithersburg, Md.) at 450 nm. Cell protein levels were determined in the same samples by the method of Bradford (Bradford, Anal. Biochem., 72, 248-254 (1976)), where coomassie blue staining is detected at 590 nm.
(§3) The results obtained from using MTT assay were further confirmed with the trypan blue dye exclusion assay. […] Levels of viability were measured using the trypan blue assay as described under Materials and Methods. Results are expressed as fold trypan blue stained cells per total cell protein over control untreated cells. Results shown are means±SD (n=6-12).

rat PC12 cells = test: Trypan blue dye exclusion assay, PC12 cells (Example I); type: cell-based; details: 100 μM steroid, 72 hours
Procedure: as §2, §3

NT2 cells [5] = test: BrdU assay, NT2 cell proliferation; type: cell-based, human; details: 50 μM

Compound: C[C@H]1CC[C@@]2(OC1)O[C@H]1C[C@H]3[C@@H]4CC=C5C[C@@H](O)CC[C@]5(C)[C@H]4CC[C@]3(C)[C@H]1[C@@H]2C [SP235, (22R,25S)-(20α)-spirost-5-en-3β-ol]
- neuroprotective effect compared with SP222 [1]: significantly more robust effect than SP222
- neuroprotection against 0.1 μM Aβ-induced neurotoxicity [1]: displayed neuroprotective activity
- neuroprotection against 10 μM Aβ-induced neurotoxicity [1]: exhibited neuroprotective activity
- neuroprotection against Aβ-induced neurotoxicity (structure/activity discussion) [1]: limited neuroprotection acting only against 0.1 μM Aβ
- reversal of Aβ-induced decrease in ATP levels (PC12 cells [2]): did not block

Compound: (20ζ)-25ζ-methyl-N-acetyl-(22R,26)-azacyclofurost-5-en-3ζ-ol [SP226]
- neuroprotection against Aβ-induced neurotoxicity (structure/activity discussion) [1]: did not offer neuroprotection
- displacement of radiolabeled 22R-hydroxycholesterol binding to Aβ (Aβ): 65%

Compound: CC1CCC2(OC1)OC1CC3C4CC=C5CC(O)C(O)CC5(C)C4CCC3(C)C1C2C [SP227, (22R,25ζ)-(20α)-spirost-5-en-(2α,3ζ)-diol]
- displacement of radiolabeled 22R-hydroxycholesterol binding to Aβ (Aβ): 38%

Compound: CC(=O)OC1CC[C@@]2(C)C(=CC[C@H]3[C@@H]4CC(OC(C)=O)[C@H]([C@H](C)C(CCC(C)CN(C(C)=O)C(C)=O)OC(C)=O)[C@@]4(C)CC[C@@H]32)C1 (stereo partly shown) [SP237, 26-diacetylamino-(22ζ)-acetoxy-(16ζ)-acetoxy-cholest-5-en-yl acetate]
- neuroprotection against 0.1 μM Aβ-induced neurotoxicity [1]: displayed neuroprotective activity
- displacement of radiolabeled 22R-hydroxycholesterol binding to Aβ (Aβ): 46%

Compound: CC1CCC2(OC1)OC1CC3C4CC=C5CC(OC(=O)c6ccccc6)CCC5(C)C4CCC3(C)C1C2C [SP232, (22R,25ζ)-(20α)-spirost-5-en-3β-yl benzoate]
- neuroprotection against Aβ-induced neurotoxicity (structure/activity discussion) [1]: not effective in neuroprotection

Compound: (20ζ)-26-acetylamino-(22ζ)-ethoxyfurost-5-en-3ζ-yl acetate [SP228]
- neuroprotection against 0.1 μM Aβ-induced neurotoxicity [1]: displayed neuroprotective activity

Compound: CC(C)CCC[C@@H](C)[C@H]1CC[C@H]2[C@@H]3CC=C4C[C@@H](O)CC[C@]4(C)[C@H]3CC[C@]12C [cholesterol, 5-cholesten-3β-ol]
- effect on toxicity of low concentrations of Aβ (rat PC12 neuronal cells): accentuated the toxic effect of low concentrations of Aβ
- neuroprotective effect against Aβ-induced neurotoxicity (rat PC12 neuronal cells; Aβ1-42): could not be replicated
- effect on NT2 cell morphology (differentiation) (NT2 cells [3]): could not be replicated

Compound: CC(=O)[C@@]1(O)CC[C@H]2[C@@H]3CC=C4C[C@@H](O)CC[C@]4(C)[C@H]3CC[C@@]21C [17α-hydroxypregnenolone, 5-pregnen-3β, 17α-diol-20-one]
- PC12 cell viability, steroid alone (rat PC12 neuronal cells; absence of Aβ): toxic to the cells

Compound: CCC(=O)O[C@H]1CC[C@@]2(C)C(=CC[C@H]3[C@@H]4C[C@@H]5O[C@@]6(CC[C@H](C)CN6C(C)=O)[C@@H](C)[C@@H]5[C@@]4(C)CC[C@@H]32)C1 [SP238, (20α)-25S-methyl-N-acetyl-(22S,26)-azacyclofurost-5-en-3β-yl propanoate]
- neuroprotective effect compared with SP222 [1]: significantly more robust effect than SP222
- neuroprotection against 0.1 μM Aβ-induced neurotoxicity [1]: displayed neuroprotective activity
- neuroprotection against 1 μM Aβ-induced neurotoxicity [1]: maintained their neuroprotective properties
- neuroprotection against 10 μM Aβ-induced neurotoxicity [1]: kept this property; also recorded: exhibited neuroprotective activity
- neuroprotection against Aβ-induced neurotoxicity (structure/activity discussion) [1]: able to protect PC12 cells
- reversal of Aβ-induced decrease in ATP levels (PC12 cells [2]): did not block; also recorded: no effect on maintaining ATP levels
- displacement of radiolabeled 22R-hydroxycholesterol binding to Aβ (Aβ): 44%
- neuroprotective effect against 10 μM Aβ, membrane potential luminescence (PC12 cells [4]): replicated by the raise of the signal

Compound: C[C@]12CC[C@H](O)CC1=CC[C@@H]1[C@@H]2CC[C@]2(C)C(=O)CC[C@@H]12 [DHEA, 5-androsten-3β-ol-17-one]
- rescue from Aβ1-42-induced cell death (human NT2 cells): had no effect
- rescue from Aβ25-35-induced cell death (human NT2 cells): Neither 22R-hydroxycholesterol nor DHEA could rescue
- PC12 cell viability, steroid alone at 100 μM (rat PC12 neuronal cells; 100 μM steroid): positive effect on cell viability
- rescue from Aβ1-42-induced cell death (rat PC12 cells): protected
- rescue from Aβ25-35-induced cell death (rat PC12 cells): Neither 22R-hydroxycholesterol nor DHEA could rescue
- effect on NT2 cell morphology (differentiation) (NT2 cells [3]): could not be replicated

Compound: CC(=O)[C@H]1CC[C@H]2[C@@H]3CCC4=CC(=O)CC[C@]4(C)[C@H]3CC[C@]12C [progesterone]
- NT2 cell proliferation at 50 μM (NT2 cells [5]): significantly inhibited
- effect on NT2 cell morphology (differentiation) (NT2 cells [3]): could not be replicated

Compound: C[C@H]1CC[C@@]2(OC1)O[C@H]1C[C@H]3[C@@H]4CC=C5CC(O)CC[C@]5(C)[C@H]4CC[C@]3(C)[C@H]1[C@@H]2C (stereo partly drawn) [SP231, (22R,25S)-(20ζ)-spirost-5-en-3ζ-ol]
- neuroprotection against Aβ-induced neurotoxicity (structure/activity discussion) [1]: only SP235 is protective

Compound: (22R,25S)-(20α)-spirost-5-en-3β-yl succinate [SP236]
- neuroprotective effect compared with SP222 [1]: significantly more robust effect than SP222
- neuroprotection against 0.1 μM Aβ-induced neurotoxicity [1]: displayed neuroprotective activity
- neuroprotection against 1 μM Aβ-induced neurotoxicity [1]: maintained their neuroprotective properties
- neuroprotection against 10 μM Aβ-induced neurotoxicity [1]: exhibited neuroprotective activity
- neuroprotection against Aβ-induced neurotoxicity (structure/activity discussion) [1]: active against higher Aβ concentrations
- reversal of Aβ-induced decrease in ATP levels (PC12 cells [2]): able to reverse; also recorded: blocked, although in part

Compound: (20α)-25ζ-methyl-N-paratoluenesulfonyl-(22R,26)-azacyclofurost-5-en-3ζ-yl paratoluenesulfonate [SP229]
- neuroprotection against 0.1 μM Aβ-induced neurotoxicity [1]: displayed neuroprotective activity

Reference: patent US20060009433A1, “Neuroprotective spirostenol pharmaceutical compositions” (priority 2003, published 2006)
